# Tested on: T1, GCaMP5-expressing T. gondii
# T1 construct: whole extracellular parasites expressing GCaMP5 Ca2+ sensor
# Design: species or system GCaMP5-expressing Toxoplasma gondii, extracellular; GCaMP5 fluorescence (cytosolic Ca2+) after 100 uM zaprinast in compound-pretreated extracellular parasites, background-subtracted, relative to zaprinast alone
# Conditions: 100 uM zaprinast stimulation; 10 min pretreatment; mean of two replicates; 0.23 h
# In short: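 Read-out is GCaMP5 calcium fluorescence (ex 485/em 525 nm) taken 4 min after 100 μM zaprinast at 37 °C, following 10 min compound pretreatment at 10 μM in duplicate biological replicates. Values are basal-subtracted fold change versus zaprinast-only controls; parasites held extracellular in Ringer's solution.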
row,Compound,fold change in fluorescence relative to zaprinast alone
1,Fc1ccc(-c2ncn(CCCN3CCOCC3)c2-c2ccccn2)cc1 [SB-211742],1.072
2,Fc1ccc(-c2ncn(CCCN3CCOCC3)c2-c2cccnc2)cc1 [SB-211743],1.228
3,Nc1nccc(-c2c(-c3ccc(F)cc3)ncn2CCCN2CCOCC2)n1 [SB-216385],1.045
4,CSc1nccc(-c2c(-c3ccc(F)cc3)ncn2CCCN2CCOCC2)n1 [SB-217146-A],0.6021
5,Fc1ccc(-c2nc[nH]c2-c2ccncc2)cc1 [SB-217360],0.1031
6,FC(F)(F)c1ccc(-c2ncn(CCCN3CCOCC3)c2-c2ccncc2)cc1 [SB-217780],0.91
7,CCOC(=O)N1CCC(n2cnc(-c3ccc(F)cc3)c2-c2ccnc(N)n2)CC1 [SB-219952],0.8316
8,Nc1nccc(-c2c(-c3ccc(F)cc3)ncn2C2CCN(Cc3ccccc3)CC2)n1 [SB-219980],0.5084
9,Nc1nccc(-c2c(-c3ccc(F)cc3)ncn2C2CCNCC2)n1 [SB-220025-R],1.112
10,CC1(C)CC(n2cnc(-c3ccc(F)cc3)c2-c2ccnc(N)n2)CC(C)(C)N1 [SB-221466],1.33
11,CNc1nccc(-c2c(-c3ccc(F)cc3)ncn2CCCN2CCOCC2)n1 [SB-222516],0.95
12,Cc1cc(-c2c(-c3ccc(F)cc3)ncn2CCCN2CCOCC2)nc(N)n1 [SB-222517],1.044
13,CNc1nccc(-c2c(-c3ccc(F)cc3)ncn2C2CCN(C)CC2)n1 [SB-222903],0.211
14,CC(C)N1CCC(n2cnc(-c3ccc(F)cc3)c2-c2ccnc(N)n2)CC1 [SB-223132],0.4026
15,Nc1nccc(-c2c(-c3ccc(F)cc3)ncn2C2CCC(O)CC2)n1 (stereo not drawn) [SB-223133],0.9972
16,CCNc1nccc(-c2c(-c3ccc(F)cc3)ncn2C2CCN(C)CC2)n1 [SB-226605],0.6067
17,CN1CCC(n2cnc(-c3ccc(F)cc3)c2-c2ccnc(NCCO)n2)CC1 [SB-226879],1.236
18,CN1CCC(n2cnc(-c3ccc(F)cc3)c2-c2ccnc(NC3CCNCC3)n2)CC1 [SB-229482],0.6668
19,Nc1nccc(-c2c(-c3ccc(F)cc3)ncn2C2CCN(CC(F)(F)F)CC2)n1 [SB-236560],0.7968
20,CN1CCC(n2cnc(-c3ccc(F)cc3)c2-c2ccnc(Nc3ccccc3)n2)CC1 [SB-236687],1.382
21,Fc1ccc(-c2ncn(C3CCNCC3)c2-c2ccnc(Nc3ccccc3)n2)cc1 [SB-238039-R],0.4937
22,NC(=O)c1ccc(Oc2nccc(-c3c(-c4ccc(F)cc4)ncn3C3CCNCC3)n2)cc1 [SB-242718],1.27
23,CCc1ccc(Oc2nccc(-c3c(-c4ccc(F)cc4)ncn3C3CCNCC3)n2)cc1 [SB-242719],1.455
24,Fc1ccc(-c2ncn(C3CCNCC3)c2-c2ccnc(Oc3ccc(-c4ccccc4)cc3)n2)cc1 [SB-245391],1.215

row,Compound,fold change in fluorescence relative to zaprinast alone
1,CCOc1nccc(-c2c(-c3ccc(F)cc3)ncn2C2CCNCC2)n1 [SB-249175],0.6135
2,Fc1ccc(-c2ncn(C3CCNCC3)c2-c2ccnc(Oc3ccc4c(c3)OCO4)n2)cc1 [SB-250715],1.074
3,Fc1ccc(-c2ncn(C3CCNCC3)c2-c2ccnc(Oc3ccc(F)c(F)c3)n2)cc1 [SB-253228],1.173
4,NC(=O)Cc1ccccc1Oc1nccc(-c2c(-c3ccc(F)cc3)ncn2C2CCNCC2)n1 [SB-264865],1.313
5,COc1nccc(-c2c(-c3ccc(F)cc3)ncn2CCCN2CCOCC2)n1 [SB-282852],0.8251
6,CN1C(=O)C(Nc2ccccc2)=C(c2ccccc2)C1=O [SB-300079],0.899
7,O=C1NC(=O)C(c2ccc(Cl)cc2)=C1Nc1cccc(Cl)c1 [SB-317651],0.9895
8,CSc1ccc(NC2=C(c3ccc(Cl)cc3)C(=O)NC2=O)cc1 [SB-317658],0.971
9,CN(C1=C(c2ccccc2)C(=O)NC1=O)c1ccccc1 [SB-334860],0.8099
10,COc1cccc(C2=C(N(C)c3ccccc3)C(=O)NC2=O)c1 [SB-334865],0.953
11,O=C1NC(=O)C(c2ccc(Cl)cc2)=C1Nc1ccc(O)cc1 [SB-340867],1.192
12,COc1cccc(C2=C(Nc3cccc(Cl)c3)C(=O)NC2=O)c1 [SB-341556],1.087
13,O=C1NC(=O)C(c2ccccc2Cl)=C1Nc1cccc(Cl)c1 [SB-342409],0.95
14,CSc1ccc(NC2=C(c3ccccc3Cl)C(=O)NC2=O)cc1 [SB-342411],0.8828
15,N#Cc1c(NC(=O)c2ccc(F)cc2)sc2c1CCCC2 [SB-347804],1.012
16,COc1ccc(C2=C(N3CCc4ccccc43)C(=O)NC2=O)cc1 [SB-361058],1.153
17,O=C1NC(=O)C(N2CCc3ccccc32)=C1c1ccccc1Cl [SB-373598],1.071
18,COc1ccccc1C1=C(Nc2cccc(O)c2)C(=O)NC1=O [SB-381891],0.9532
19,O=C1NC(=O)C(c2ccccc2Cl)=C1Nc1cccc(O)c1 [SB-390527],1.108
20,O=C1NC(=O)C(c2ccccc2)=C1Nc1cccc(O)c1 [SB-390534],0.8317
21,COc1ccc(C2=C(Nc3cccc(C(=O)O)c3)C(=O)NC2=O)cc1 [SB-390765],0.6431
22,COc1ccc(C2=C(Nc3cccc(O)c3)C(=O)NC2=O)cc1 [SB-390766],1.133
23,COc1cccc(C2=C(Nc3cc(Cl)c(O)c(Cl)c3)C(=O)NC2=O)c1 [SB-390767],1.06
24,COc1cccc(C2=C(Nc3ccc(Cl)c(C(=O)O)c3)C(=O)NC2=O)c1 [SB-390769],1.176

row,Compound,fold change in fluorescence relative to zaprinast alone
1,COc1cccc(C2=C(Nc3cccc(C(=O)O)c3)C(=O)NC2=O)c1 [SB-390770],0.98
2,COc1cccc(C2=C(Nc3cccc(O)c3)C(=O)NC2=O)c1 [SB-390771],0.8334
3,c1ccc(-c2nc3n(c2-c2ccc4c(c2)OCO4)CCC3)nc1 [SB-400868-A],0.8655
4,CN1C(=O)C(Nc2ccc(Cl)c(C(=O)O)c2)=C(c2ccc(Cl)cc2)C1=O [SB-404290],0.783
5,CN1C(=O)C(Nc2cc(Cl)c(O)c(Cl)c2)=C(c2ccc(Cl)cc2)C1=O [SB-404321],1.253
6,O=C1NC(=O)C(N2CCc3ccccc32)=C1c1cccc(Cl)c1 [SB-408010],0.7986
7,O=C1NC(=O)C(c2cccc(Cl)c2)=C1Nc1ccc(Cl)c(C(=O)O)c1 [SB-409513],1.123
8,O=C1NC(=O)C(c2cccc(Cl)c2)=C1Nc1ccc(O)c(Cl)c1 [SB-409514],1.132
9,Oc1ccc(-c2nc(-c3ccccc3)[nH]c2-c2ccncc2)cc1 [SB-428218-A],1.23
10,OCc1ccc(-c2nc(-c3ccc4c(c3)OCO4)c(-c3ccccn3)[nH]2)cc1 [SB-431533],1.145
11,NC(=O)c1ccc(-c2nc(-c3ccccn3)c(-c3ccc4c(c3)OCO4)[nH]2)cc1 [SB-431542-A],1.08
12,COc1ccc2cc(-c3c(-c4ccncc4)nc(-c4ccc([S+](C)[O-])cc4)n3C)ccc2c1 (stereo not drawn) [SB-437013],1.038
13,NCc1ccc(-c2nc(-c3ccc(Cl)c(O)c3)c(-c3ccncc3)[nH]2)cc1 [SB-476429-A],1.226
14,Nc1[nH]nc2ncc(-c3ccccc3)cc12 [SB-517081],0.8708
15,Nc1n[nH]c2nnc(-c3ccccc3)cc12 [SB-517389],1.055
16,CC(=O)Nc1[nH]nc2ncc(-c3ccccc3)cc12 [SB-548492],1.137
17,COc1ccc(-c2oc3ncnc(N)c3c2-c2ccc(OC)cc2)cc1 [SB-589132],1.026
18,CCN(CC)CCOc1ccc(Nc2ncc3cc(-c4c(Cl)cccc4Cl)c(=O)n(C)c3n2)cc1 [SB-601273],0.7002
19,CCCC(=O)Nc1[nH]nc2ncccc12 [SB-601436],0.9225
20,COc1cccc(-c2nc(-c3ccccc3)[nH]c2-c2ccncc2)c1 [SB-610250],0.7579
21,Oc1cccc(-c2nc(-c3ccccc3)[nH]c2-c2ccncc2)c1 [SB-610251-B],1.022
22,ON=C1CCc2cc(-c3nc(C4CCNCC4)[nH]c3-c3ccncc3)ccc21 [SB-614067-R],1.048
23,COc1ccc2cc(-c3c(-c4ccncc4)nc(-c4ccc(SC)cc4C)n3C)ccc2c1 [SB-625086-M],0.941
24,CN(C)CCCC(=O)Nc1n[nH]c2nnc(-c3ccccc3)cc12 [SB-627772-A],1.028

# Source: paper PMC4850295, “Using a Genetically Encoded Sensor to Identify Inhibitors of Toxoplasma gondii Ca^2+ Signaling” (The Journal of Biological Chemistry, 2016)
